This is an account of results in patent US20110044938A1 (NYCOMED GMBH, priority 2006, published 2011).

Assay [1] concerns RKO (RKOp27) human colon adenocarcinoma cells. Description: Alamar Blue cell viability assay, anti-proliferative/cytotoxic activity on proliferating RKO subclones. The class given is cell-based. As to conditions: RKOp27, 72 h, RKO p27 uninduced (proliferating) cells, value = class bound given in Table A, read-out: −logIC50 RKO p27 uninduced (proliferating) (converted). A digest of the protocol:
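RKOp27 subclones (5000 cells/well) were exposed 24 h after seeding to semi-log compound dilutions in DMEM with 10% FCS, in quadruplicate, for 72 h at 37 °C. Viability was read by Alamar Blue fluorescence (544/590 nm) relative to untreated cells (1% DMSO medium). IC50 came from concentration-effect curves and is reported as −log IC50 [mol/l].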
A general note: The colour change of resazurin is a common sign of viable cells or microbes.

Assay [2] concerns subclones of RKO colon adenocarcinoma cells (RKOp27 or RKOp21) arrested by Ponasterone A. Description: Alamar Blue cell viability assay, cell cycle specific mode of action: cells arrested by ectopic p27Kip1 induced by Ponasterone A versus proliferating cells. The class given is cell-based. As to conditions: Homo sapiens, RKO p27 induced (arrested) cells, 10 μM Ponasterone A, 72 hours, value = class bound given in Table A, read-out: −logIC50 RKO p27 induced (arrested) (converted). The method, boiled down: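 RKOp27 or RKOp21 cells, 15000/well in DMEM/10% FCS, either arrested by p27Kip1 induced with 10 μM Ponasterone A or proliferating without inducer; compound added after 24 h, 72 h at 37° C. Alamar Blue fluorescence (544/590 nm), viability as % of untreated cells; −log IC50 reported.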

As for `Cn1cnc(CNC(=O)OC2CCc3c(sc(NC(=O)/C=C/c4cccnc4)c3C#N)C2)c1` (stereo not drawn) [Example 53, (1-Methyl-1H-imidazol-4-ylmethyl)-carbamic acid 3-cyano-2-((E)-3-pyridin-3-yl-allanoylamino)-4,5,6,7-tetrahydro-benzo[b]thiophen-6-yl ester], the values for the IC50 in assay [1] and in assay [2] were 501 to 2000 nM and no less than 100000 nM, respectively.
For `CC(C)NC(=O)OCC1CCc2c(sc(NC(=O)/C=C/c3cccnc3)c2C#N)C1` (stereo not drawn) [Example 101, Isopropyl-carbamic acid 3-cyano-2-((E)-3-pyridin-3-yl-allanoylamino)-4,5,6,7-tetrahydro-benzo[b]thiophen-6-ylmethyl ester], the figures for the IC50 in assay [1] and in assay [2] were no more than 501 nM and no less than 100000 nM, respectively.
For `CCNC(=O)OCC1CCc2c(sc(NC(=O)/C=C/c3ccccc3OCC)c2C#N)C1` (stereo not drawn) [Example 10, Ethyl-carbamic acid 3-cyano-2-[(E)-3-(2-ethoxy-phenyl)-allanoylamino]-4,5,6,7-tetrahydro-benzo[b]thiophen-6-ylmethyl ester], the IC50 is no more than 501 nM in assay [1] and no less than 100000 nM in assay [2].
The corresponding values for `Cc1nocc1CNC(=O)OC1CCc2c(sc(NC(=O)CC(C)c3ccccc3)c2C#N)C1` (stereo not drawn) [Example 359, (3-Methyl-isoxazol-4-ylmethyl)-carbamic acid 3-cyano-2-(3-phenyl-butanoylamino)-4,5,6,7-tetrahydro-benzo[b] thiophen-6-yl ester] are no more than 501 nM and no less than 100000 nM.
The corresponding values for `COc1cccc(CCC(=O)Nc2sc3c(c2C#N)CCC(OC(=O)NCC2CCCO2)C3)c1` (stereo not drawn) [Example 225, (Tetrahydro-furan-2-ylmethyl)-carbamic acid 3-cyano-2-[3-(3-methoxy-phenyl)-propanoylamino]-4,5,6,7-tetrahydro-benzo[b]thiophen-6-yl ester] are 501 to 2000 nM and no less than 100000 nM.
Taken in the same sequence, the figures for `Cn1cncc1CNC(=O)OC1CCc2c(sc(NC(=O)/C=C/c3cccnc3)c2C#N)C1` (stereo not drawn) [Example 38, (3-Methyl-3H-imidazol-4-ylmethyl)-carbamic acid 3-cyano-2-((E)-3-pyridin-3-yl-allanoylamino)-4,5,6,7-tetrahydro-benzo[b]thiophen-6-yl ester] were 501 to 2000 nM and no less than 100000 nM.
Consider `CC(CC(=O)Nc1sc2c(c1C#N)CCC(COC(=O)NC(C)c1ccnn1C)C2)c1ccccc1` (stereo not drawn) [Example 318, [1-(2-Methyl-2H-pyrazol-3-yl)-ethyl]-carbamic acid 3-cyano-2-(3-phenyl-butanoylamino)-4,5,6,7-tetrahydro-benzo[b] thiophen-6-ylmethyl ester], for which the IC50 in assay [1] is no more than 501 nM; in assay [2], no less than 10000 nM.
The corresponding values for `COc1cccc(C(C)CC(=O)Nc2sc3c(c2C#N)CCC(OC(=O)NCc2cc(C)nn2C)C3)c1` (stereo not drawn) [Example 273, (2,5-Dimethyl-2H-pyrazol-3-ylmethyl)-carbamic acid 3-cyano-2-[3-(3-methoxy-phenyl)-butanoylamino]-4,5,6,7-tetrahydro-benzo[b] thiophen-6-yl ester] are no more than 501 nM and no less than 100000 nM.
Taken in the same sequence, the figures for `COc1cccc(C(C)CC(=O)Nc2sc3c(c2C#N)CCC(OC(=O)N2CCCC2)C3)c1` (stereo not drawn) [Example 376, Pyrrolidine-1-carboxylic acid 3-cyano-2-(3-(3-methoxy-phenyl)-butanoylamino)-4,5,6,7-tetrahydro-benzo[b] thiophen-6-yl ester] were no more than 501 nM and no less than 10000 nM.
`COc1cccc(CCC(=O)Nc2sc3c(c2C#N)CCC(COC(=O)NCc2ccnn2C)C3)c1` (stereo not drawn) [Example 237, (2-Methyl-2H-pyrazol-3-ylmethyl)-carbamic acid 3-cyano-2-[3-(3-methoxy-phenyl)-propanoylamino]-4,5,6,7-tetrahydro-benzo[b]thiophen-6-ylmethyl ester]: the IC50 in assay [1] was 501 to 2000 nM; in assay [2] it was no less than 100000 nM.
The corresponding values for `COc1cccc(C(C)CC(=O)Nc2sc3c(c2C#N)CCC(COC(=O)NCc2c[nH]nc2C)C3)c1` (stereo not drawn) [Example 336, (3-Methyl-1H-pyrazol-4-ylmethyl)-carbamic acid 3-cyano-2-[3-(3-methoxy-phenyl)-butanoylamino]-4,5,6,7-tetrahydro-benzo[b] thiophen-6-ylmethyl ester] are 501 to 2000 nM and no less than 10000 nM.
In the case of `N#Cc1c(NC(=O)/C=C/c2cccnc2)sc2c1CCC(COC(=O)N1CCOCC1)C2` (stereo not drawn) [Example 84, Morpholine-4-carboxylic acid-3-cyano-2-((E)-3-pyridin-3-yl-allanoylamino)-4,5,6,7-tetrahydro-benzo[b]thiophen-6-ylmethyl ester], the IC50 in assay [1] was no more than 501 nM; in assay [2], no less than 100000 nM.
Taken in the same sequence, the figures for `N#Cc1c(NC(=O)/C=C/c2cccnc2)sc2c1CCC(OC(=O)N1CCC1)C2` (stereo not drawn) [Example 80, Azetidine-1-carboxylic acid 3-cyano-2-((E)-3-pyridin-3-yl-allanoylamino)-4,5,6,7-tetrahydro-benzo[b]thiophen-6-yl ester] were no more than 501 nM and no less than 100000 nM.
Taken in the same sequence, the figures for `COc1cccc(C(C)CC(=O)Nc2sc3c(c2C#N)CCC(OC(=O)NCc2cccnc2)C3)c1` (stereo not drawn) [Example 268, Pyridin-3-ylmethyl-carbamic acid 3-cyano-2-[3-(3-methoxy-phenyl)-butanoylamino]-4,5,6,7-tetrahydro-benzo[b]thiophen-6-yl ester] were 501 to 2000 nM and no less than 100000 nM.
Taken in the same sequence, the figures for `COc1cccc(C(C)CC(=O)Nc2sc3c(c2C#N)CCC(COC(=O)NCc2cncn2C)C3)c1` (stereo not drawn) [Example 331, (3-Methyl-3H-imidazol-4-ylmethyl)-carbamic acid 3-cyano-2-[3-(3-methoxy-phenyl)-butanoylamino]-4,5,6,7-tetrahydro-benzo[b] thiophen-6-ylmethyl ester] were 501 to 2000 nM and no less than 10000 nM.
In the case of `CC(CC(=O)Nc1sc2c(c1C#N)CCC(OC(=O)NCc1cccnc1)C2)c1ccccc1` (stereo not drawn) [Example 288, Pyridin-3-ylmethyl-carbamicacid 3-cyano-2-(3-phenyl-butanoyl-amino)-4,5,6,7-tetrahydro-benzo[b]thiophen-6-yl ester], the IC50 in assay [1] was no more than 501 nM; in assay [2], no less than 10000 nM.
As for `CCOc1ccccc1CCC(=O)Nc1sc2c(c1C#N)CCC(OC(=O)NCc1ccno1)C2` (stereo not drawn) [Example 207, Isoxazol-5-ylmethyl-carbamic acid 3-cyano-2-[3-(2-ethoxy-phenyl)-propanoylamino]-4,5,6,7-tetrahydro-benzo[b]thiophen-6-yl ester], the IC50 in assay [1] is no more than 501 nM; in assay [2] it was no less than 100000 nM.
The corresponding values for `N#Cc1c(NC(=O)/C=C/c2cccnc2)sc2c1CC[C@H](COC(=O)N1CCC[C@H](O)C1)C2` [Example 87c, (S)-3-Hydroxy-piperidine-1-carboxylic acid (S)-3-cyano-2-((E)-3-pyridin-3-yl-allanoylamino)-4,5,6,7-tetrahydro-benzo[b]thiophen-6-ylmethyl ester] are no more than 501 nM and no less than 100000 nM.
Taken in the same sequence, the figures for `CCOc1ccccc1CCC(=O)Nc1sc2c(c1C#N)CCC(COC(=O)NCc1ccnn1C)C2` (stereo not drawn) [Example 180, (2-Methyl-2H-pyrazol-3-ylmethyl)-carbamic acid 3-cyano-2-[3-(2-ethoxy-phenyl)-propanoylamino]-4,5,6,7-tetrahydro-benzo[b]thiophen-6-ylmethyl ester] were no more than 501 nM and no less than 100000 nM.
Turning to `N#Cc1c(NC(=O)/C=C/c2cccnc2)sc2c1CCC(OC(=O)N1CCCO1)C2` (stereo not drawn) [Example 119, Isoxazolidine-2-carboxylic acid 3-cyano-2-((E)-3-pyridin-3-yl-allanoylamino)-4,5,6,7-tetrahydro-benzo[b]thiophen-6-yl ester], the figures for the IC50 in assay [1] and in assay [2] were no more than 501 nM and no less than 100000 nM, respectively.
The corresponding values for `CNC(=O)OC1CCc2c(sc(NC(=O)/C=C/c3cccnc3)c2C#N)C1` (stereo not drawn) [Example 20, Methyl-carbamic acid 3-cyano-2-((E)-3-pyridin-3-yl-allanoylamino)-4,5,6,7-tetrahydro-benzo[b]thiophen-6-yl ester] are no more than 501 nM and no less than 100000 nM.
For the molecule `Cc1cc(CNC(=O)OC2CCc3c(sc(NC(=O)/C=C/c4cccnc4)c3C#N)C2)n(C)n1` (stereo not drawn) [Example 95, (2,5-Dimethyl-2H-pyrazol-3-ylmethyl)-carbamic acid 3-cyano-2-((E)-3-pyridin-3-yl-allanoylamino)-4,5,6,7-tetrahydro-benzo[b]thiophen-6-yl ester], the IC50 in assay [1] is no more than 501 nM; in assay [2], no less than 100000 nM.
The corresponding values for `CCOc1ccccc1CCC(=O)Nc1sc2c(c1C#N)CCC(OC(=O)NCc1ncc[nH]1)C2` (stereo not drawn) [Example 185, (1H-Imidazol-2-ylmethyl)-carbamic acid 3-cyano-2-[3-(2-ethoxy-phenyl)-propanoylamino]-4,5,6,7-tetrahydro-benzo[b]thiophen-6-yl ester] are no more than 501 nM and no less than 10000 nM.
Taken in the same sequence, the figures for `N#Cc1c(NC(=O)/C=C/c2cccnc2)sc2c1CCC(OC(=O)N1CC[C@@H](O)[C@@H](O)C1)C2` (stereo partly drawn) [Example 125, cis-3-, 4-Dihydroxy-piperidine-1-carboxylic acid 3-cyano-2-((E)-3-pyridin-3-yl-allanoylamino)-4,5,6,7-tetrahydro-benzo[b]thiophen-6-yl ester] were 501 to 2000 nM and no less than 100000 nM.
